According to patent US8691815B2, “Substituted oxindole derivatives, drugs containing said derivatives and the use thereof” (AbbVie Deutschland GmbH & Co. KG, priority 2005, dated 2014):
Structures can show the parent of a compound that is named as a salt.

biological target: T1, human vasopressin V1b receptor (Homo sapiens, UniProt P47901); assay: Vasopressin V1b receptor binding assay; conditions: membranes from CHO-K1 cells with stably expressed human V1b receptors, displacement of 1.5 nM 3H-AVP
T1 construct: expressed in transfected cells; host or cells: CHO-K1 (cell line hV1b-3H2_CHO), membrane preparation
T1 sequence (P47901 1-424): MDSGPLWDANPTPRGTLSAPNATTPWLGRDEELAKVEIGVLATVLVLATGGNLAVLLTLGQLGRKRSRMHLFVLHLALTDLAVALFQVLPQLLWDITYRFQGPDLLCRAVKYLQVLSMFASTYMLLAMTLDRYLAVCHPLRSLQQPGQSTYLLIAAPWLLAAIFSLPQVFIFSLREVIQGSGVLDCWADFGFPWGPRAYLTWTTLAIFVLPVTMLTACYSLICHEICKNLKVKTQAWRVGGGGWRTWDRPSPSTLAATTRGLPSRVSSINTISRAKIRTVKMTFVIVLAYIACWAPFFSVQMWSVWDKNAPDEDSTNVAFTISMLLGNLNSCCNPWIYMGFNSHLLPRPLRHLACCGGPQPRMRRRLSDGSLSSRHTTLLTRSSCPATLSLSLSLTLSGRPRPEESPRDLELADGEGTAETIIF
Procedure: Vasopressin V1b Receptor Binding Assay:
The test substances were dissolved in a concentration of 10^−2 M in DMSO (dimethyl sulfoxide) and further diluted to 5×10^−4 M to 5×10^−9 M in DMSO. This series of DMSO predilutions was diluted 1:10 with assay buffer. The substance concentration was again diluted 1:5 in the assay mixture (2% DMSO in the mixture).
The membrane pellet was again homogenized and centrifuged as described and then taken up in 50 mM Tris-HCl, pH 7.4, homogenized and stored in aliquots frozen in liquid nitrogen at −190° C.
The incubation buffer was: 50 mM Tris, 10 mM MgCl2, 0.1% BSA, pH 7.4.
The nonspecific binding was determined with 1 uM AVP (Bachem # H1780). All determinations were carried out as triplicate determinations. After incubation (60 minutes at room temperature), the free radioligand was removed by vacuum filtration (Skatron cell harvester 7000) through Whatman GF/B glass fiber filter mats, and the filters were transferred into scintillation vials. The liquid scintillation measurement took place in a Tricarb model 2000 or 2200CA instrument (Packard). Conversion of the measured cpm into dpm was carried out with the aid of a standard quench series.
The binding parameters were calculated by nonlinear regression in SAS.

Q: COCCN(C)Cc1ccc(OC)c(C2(N3CCC[C@H]3C(=O)N(C)C)C(=O)N(S(=O)(=O)c3ccc(OC)cc3)c3ccc(Cl)cc32)c1 (stereo partly drawn) [Example 32, (S)-1-[5-Chloro-1-(4-methoxybenzenesulfonyl)-3-(2-methoxy-5-{[(2-methoxyethyl)-methylamino]methyl}phenyl)-2-oxo-2,3-dihydro-1H-indol-3-yl]-pyrrolidine-2-dimethyl-carboxamide, trifluoroacetic acid salt] was tested. Which Ki did it give?
A: < 1 nM

Q: Which Ki does the source give for COCCN(C)Cc1ccc(OC)c(C2(N3CCC[C@H]3C(=O)N(C)C)C(=O)N(S(=O)(=O)c3ccc(OC)cc3OC)c3ccc(Cl)cc32)c1 (stereo partly drawn) [Example 33, (S)-1-[5-Chloro-1-(2,4-dimethoxybenzenesulfonyl)-3-(2-methoxy-5-{[(2-methoxy-ethyl)methylamino]methyl}phenyl)-2-oxo-2,3-dihydro-1H-indol-3-yl]pyrrolidine-2-dimethylcarboxamide, trifluoroacetic acid salt] here?
A: < 1 nM

Q: COc1ccc(S(=O)(=O)N2C(=O)C(c3ccc(CN4CCN(C)CC4)cc3OC)(N3CCC[C@H]3C(=O)N(C)C)c3cc(Cl)ccc32)cc1 (stereo partly drawn) [Example 69, (S)-1-{5-Chloro-1-(4-methoxybenzenesulfonyl)-3-[2-methoxy-4-(4-methylpiperazin-1-ylmethyl)phenyl]-2-oxo-2,3-dihydro-1H-indol-3-yl}pyrrolidine-2-dimethylcarboxamide, trifluoroacetic acid salt] was tested. Which Ki did it give?
A: < 1 nM

Q: For COc1ccc(S(=O)(=O)N2C(=O)C(c3ccc(CN(C)C)cc3OC)(N3CCC[C@H]3C(=O)N(C)C)c3cc(Cl)ccc32)cc1 (stereo partly drawn) [Example 70, (S)-1-[5-Chloro-3-(4-dimethylaminomethyl-2-methoxyphenyl)-1-(4-methoxy-benzenesulfonyl)-2-oxo-2,3-dihydro-1H-indol-3-yl]pyrrolidine-2-dimethylcarboxamide, trifluoroacetic acid salt], which Ki is on record?
A: < 1 nM

Q: Which Ki does the source give for COc1ccc(S(=O)(=O)N2C(=O)C(c3ccc(CN4CCOCC4)cc3OC)(N3CCC[C@H]3C(=O)N(C)C)c3cc(Cl)ccc32)cc1 (stereo partly drawn) [Example 71, (S)-1-[5-Chloro-1-(4-methoxybenzenesulfonyl)-3-(2-methoxy-4-morpholin-4-yl-methylphenyl)-2-oxo-2,3-dihydro-1H-indol-3-yl]pyrrolidine-2-dimethylcarboxamide, trifluoroacetic acid salt] here?
A: < 1 nM

Q: How did the Ki turn out when COc1cc(CN(C)C)ccc1C1(N2CCC[C@H]2C(=O)N(C)C)C(=O)N(S(=O)(=O)c2ccc(C#N)cc2)c2ccc(Cl)cc21 (stereo partly drawn) [Example 72, (S)-1-[5-Chloro-1-(4-cyanobenzenesulfonyl)-3-(4-dimethylaminomethyl-2-methoxy-phenyl)-2-oxo-2,3-dihydro-1H-indol-3-yl]pyrrolidine-2-dimethylcarboxamide, trifluoroacetic acid salt] was run?
A: 1 to 10 nM

Q: Which Ki does the source give for COc1cc(CN(C)C)ccc1C1(N2CCC[C@H]2C(=O)N(C)C)C(=O)N(S(=O)(=O)c2ccc(F)cc2)c2ccc(Cl)cc21 (stereo partly drawn) [Example 73, (S)-1-[5-Chloro-3-(4-dimethylaminomethyl-2-methoxyphenyl)-1-(4-fluorobenzene-sulfonyl)-2-oxo-2,3-dihydro-1H-indol-3-yl]pyrrolidine-2-dimethylcarboxamide, trifluoroacetic acid salt] here?
A: 1 to 10 nM

Q: Which Ki does the source give for COc1cc(CN2CCN(C)CC2)ccc1C1(N2CCC[C@H]2C(=O)N(C)C)C(=O)N(S(=O)(=O)c2ccc(F)cc2)c2ccc(Cl)cc21 (stereo partly drawn) [Example 74, (S)-1-{5-Chloro-1-(4-fluorobenzenesulfonyl)-3-[2-methoxy-4-(4-methylpiperazin-1-yl-methyl)phenyl]-2-oxo-2,3-dihydro-1H-indol-3-yl}pyrrolidine-2-dimethylcarboxamide, trifluoroacetic acid salt] here?
A: < 1 nM

Q: COc1cc(CN2CCOCC2)ccc1C1(N2CCC[C@H]2C(=O)N(C)C)C(=O)N(S(=O)(=O)c2ccc(F)cc2)c2ccc(Cl)cc21 (stereo partly drawn) [Example 77, (S)-1-[5-Chloro-1-(4-fluorobenzenesulfonyl)-3-(2-methoxy-4-morpholin-4-ylmethyl-phenyl)-2-oxo-2,3-dihydro-1H-indol-3-yl]pyrrolidine-2-dimethylcarboxamide, trifluoroacetic acid salt] was tested. Which Ki did it give?
A: 10 to 100 nM

Q: Which Ki does the source give for COc1cc(CN2CCNCC2)ccc1C1(N2CCC[C@H]2C(=O)N(C)C)C(=O)N(S(=O)(=O)c2ccc(F)cc2)c2ccc(Cl)cc21 (stereo partly drawn) [Example 78, (S)-1-[5-Chloro-1-(4-fluorobenzenesulfonyl)-3-(2-methoxy-4-piperazin-1-ylmethyl-phenyl)-2-oxo-2,3-dihydro-1H-indol-3-yl]pyrrolidine-2-dimethylcarboxamide, trifluoroacetic acid salt] here?
A: < 1 nM

Q: For COc1ccc(S(=O)(=O)N2C(=O)C(c3ccc(CN4CCNCC4)cc3OC)(N3CCC[C@H]3C(=O)N(C)C)c3cc(Cl)ccc32)cc1 (stereo partly drawn) [Example 79, (S)-1-[5-Chloro-1-(4-methoxybenzenesulfonyl)-3-(2-methoxy-4-piperazin-1-yl-methylphenyl)-2-oxo-2,3-dihydro-1H-indol-3-yl]pyrrolidine-2-dimethylcarboxamide, trifluoroacetic acid salt], which Ki is on record?
A: < 1 nM

Q: For COc1cc(CN2CCN(C)CC2)ccc1C1(N2CCC[C@H]2C(=O)N(C)C)C(=O)N(S(=O)(=O)c2ccc(C#N)cc2)c2ccc(Cl)cc21 (stereo partly drawn) [Example 80, (S)-1-{5-Chloro-1-(4-cyanobenzenesulfonyl)-3-[2-methoxy-4-(4-methylpiperazin-1-ylmethyl)phenyl]-2-oxo-2,3-dihydro-1H-indol-3-yl}pyrrolidine-2-carboxylic acid dimethylamide, trifluoroacetic acid salt], which Ki is on record?
A: < 1 nM

Q: With COc1cc(CN2CCOCC2)ccc1C1(N2CCC[C@H]2C(=O)N(C)C)C(=O)N(S(=O)(=O)c2ccc(C#N)cc2)c2ccc(Cl)cc21 (stereo partly drawn) [Example 81, (S)-1-[5-Chloro-1-(4-cyanobenzenesulfonyl)-3-(2-methoxy-4-morpholin-4-ylmethyl-phenyl)-2-oxo-2,3-dihydro-1H-indol-3-yl]pyrrolidine-2-dimethylcarboxamide, trifluoroacetic acid salt] as the molecule, how does the Ki read?
A: 1 to 10 nM

Q: For COc1cc(CN2CCNCC2)ccc1C1(N2CCC[C@H]2C(=O)N(C)C)C(=O)N(S(=O)(=O)c2ccc(C#N)cc2)c2ccc(Cl)cc21 (stereo partly drawn) [Example 82, (S)-1-[5-Chloro-1-(4-cyanobenzenesulfonyl)-3-(2-methoxy-4-piperazin-1-ylmethyl-phenyl)-2-oxo-2,3-dihydro-1H-indol-3-yl]pyrrolidine-2-dimethylcarboxamide, trifluoroacetic acid salt], which Ki is on record?
A: < 1 nM

Q: With COc1ccc(S(=O)(=O)N2C(=O)C(c3ccc(CN4CCCCC4)cc3OC)(N3CCC[C@H]3C(=O)N(C)C)c3cc(Cl)ccc32)cc1 (stereo partly drawn) [Example 83, (S)-1-[5-Chloro-1-(4-methoxybenzenesulfonyl)-3-(2-methoxy-4-piperidin-1-ylmethyl-phenyl)-2-oxo-2,3-dihydro-1H-indol-3-yl]pyrrolidine-2-dimethylcarboxamide, trifluoroacetic acid salt] as the molecule, how does the Ki read?
A: < 1 nM

Q: Which Ki does the source give for CCN(C)Cc1ccc(C2(N3CCC[C@H]3C(=O)N(C)C)C(=O)N(S(=O)(=O)c3ccc(OC)cc3)c3ccc(Cl)cc32)c(OC)c1 (stereo partly drawn) [Example 84, (S)-1-[5-Chloro-3-{4-[(ethylmethylamino)methyl]-2-methoxyphenyl}-1-(4-methoxy-benzenesulfonyl)-2-oxo-2,3-dihydro-1H-indol-3-yl]pyrrolidine-2-dimethylcarboxamide, trifluoroacetic acid salt] here?
A: < 1 nM
